Measured values: article PMC10080691, “Enzyme-Responsive Double-Locked Photodynamic Molecular Beacon for Targeted Photodynamic Anticancer Therapy” (Journal of the American Chemical Society, 2023)

Legend:
[1] = tested on: A549 human lung carcinoma cells; assay: Intracellular fluorescence by flow cytometry; format: cell-based
Method: The cellular uptake of 1 was studied using a range of cell lines with different expression levels of MMP-2, namely the MMP-2-overexpressed A549 human lung carcinoma cells[73] and U-87 MG human glioblastoma cells,[74] as well as the low MMP-2-expressed HeLa human cervical carcinoma cells[75] and HEK-293 human embryonic kidney normal cells.[76] The cells were incubated with 1 (2 μM) in a serum-free medium for 1 h and then in the neat medium for a further 6 h to provide sufficient time for enzymatic cleavage. […] Similar results were obtained by flow cytometry (Figure 5b). The quantified fluorescence intensity for A549 cells was 3.8-fold that for HEK-293 cells. […] After subsequent cleavage of the remaining GFLG linker by the intrinsic cathepsin B inside the cells, the probe was activated favorably, leading to higher intracellular fluorescence intensity.
The cells were pretreated with SB-3CT (10 μM) and/or CA-074 Me (25 μM) or simply the neat medium for 2 h, followed by incubation with 1 (2 μM) for a further 1 h. […] The fluorescence images of the cells under all these conditions were captured using a confocal laser scanning microscope. […] For the cells with pretreatment with both inhibitors, fluorescence due to 1 could hardly be seen. Similarly, for the cells being incubated with 14, the intracellular fluorescence was negligible. […]
Confocal Fluorescence Microscopic Studies […]

[2] = tested on: A549 tumor-bearing nude mice; assay: In vivo fluorescence activation in tumor; design: species or system Balb/c nude mice; details: 6 h post-injection; intratumoral, 20 nmol in 20 μL water with 7.5% DMSO and 0.5% Tween 80; excitation 680 nm, emission ≥700 nm; n = 4
Method: The in vivo activation of 1 in terms of fluorescence emission was further investigated using A549 tumor-bearing nude mice as the animal model and the non-cleavable analogue 14 as the negative control. […] The fluorescence intensity per unit area of the tumor was also determined at different time points for both conjugates (Figure 7b). […] At 6 h post-injection, the intensity of 1 was 4.3-fold higher than that of 14, showing that the former could be activated through enzymatic cleavage of the two peptide segments by the intrinsic MMP-2 and cathepsin B in the tumor, while the latter remained largely quenched due to its non-cleavable nature. […]
taken by a microplate reader (Tecan Spark 10M) at ambient temperature. The average […]
of the other wells. The cell viability was then determined by the equation: […]
where Ai is the absorbance of the ith datum (i = 1, 2, …, n), Acontrol is the average absorbance of the control wells in which the compound was absent, and n (= 4) is the number of data points.
Female Balb/c nude mice (20–25 g) were obtained from the Laboratory Animal Services Centre at The Chinese University of Hong Kong. […] In vivo fluorescence imaging was performed before and after […]
A549 tumor-bearing nude mice were prepared as described above. The length and width of the tumor were measured using a micrometer digital caliper (SCITOP Systems). […]

CCN(CC)c1ccc2nc3ccc(/N=N/c4ccc(N(C)CCCNC(=O)OC[C@@H]5[C@@H]6CCc7nnn(CC(=O)NCCCC[C@@H]8NC(=O)CNC(=O)[C@H](CCCCN)NC(=O)[C@H](CCCNC(=N)N)NC(=O)[C@H](C(C)C)NC(=O)CNC(=O)[C@H](CC(C)C)NC(=O)[C@@H]9CCCN9C(=O)[C@H](CCCCN)NC(=O)[C@@H](N)CSCc9cc(COc%10ccc(C%11=C%12C(C)=C(I)C(/C=C/c%13ccc(OCCOCCOCCOC)cc%13)=[N+]%12[B-](F)(F)n%12c(/C=C/c%13ccc(OCCOCCOCCOC)cc%13)c(I)c(C)c%12%11)cc%10)cc(c9)CSC[C@@H](C(N)=O)NC(=O)[C@H](CCCCN)NC(=O)[C@H](CCCCN)NC(=O)CNC(=O)[C@H](CC(C)C)NC(=O)[C@H](Cc9ccccc9)NC(=O)CNC(=O)[C@H](CCCCN)NC(=O)CNC8=O)c7CC[C@@H]65)cc4)cc3[n+](-c3ccccc3)c2c1 [compound 1]
intracellular fluorescence intensity, A549 relative to HEK-293 cells ([1]; 2 μM, 1 h in serum-free medium, then 6 h in neat medium, three independent experiments): 3.8 fold | intracellular fluorescence intensity, untreated cells relative to cells pretreated with the two inhibitors ([1]; A549, 2 μM 1 h + 6 h, SB-3CT (10 μM) and CA-074 Me (25 μM) 2 h pretreatment): 5.6 fold | tumoral fluorescence intensity relative to that of 14 [2]: 4.3 fold
